Assays:
[1] = biological target: T1, S-protein RBD (WT) (Severe acute respiratory syndrome coronavirus 2, UniProt P0DTC2); type: binding, SARS-CoV-2
T1 construct: made in house; host or cells: Expi293F cells

[2] = test system: SARS-CoV-2 pseudotyped viral particles (wild-type); type: binding
[3] = biological target: T2, SARS-CoV-2 S-protein RBD WT (Severe acute respiratory syndrome coronavirus 2, UniProt P0DTC2); type: binding; details: immobilized heparin, 1:1 Langmuir global fit, 25° C.
T2 construct: made in house; host or cells: Expi293F cells

Compound | inhibition of the S-protein-heparin interaction (FIG. 5) [1] | inhibition of pseudotyped viral particle binding to heparin surface compared with heparin control [2] | IC50 ([1]; read-out: IC50 against the S-protein RBD binding to immobilized heparin) | ka [3] | kd [3]
O=S(=O)(O)c1cc2c(O)c(c1)Cc1cc(S(=O)(=O)O)cc(c1O)Cc1cc(S(=O)(=O)O)cc(c1O)Cc1cc(S(=O)(=O)O)cc(c1O)Cc1cc(S(=O)(=O)O)cc(c1O)Cc1cc(S(=O)(=O)O)cc(c1O)Cc1cc(S(=O)(=O)O)cc(c1O)Cc1cc(S(=O)(=O)O)cc(c1O)C2 [GL-522-Y-1] | more modest inhibition activity |  |  |  | 
mucopolysaccharide polysulfate [MPS] | potently inhibited | stronger inhibition |  |  | 
sulfated lactobionic acid | more modest inhibition activity |  |  |  | 
heparin |  |  | 56 nM | 1427 1/MS | 2.5 × 10^−4 1/S
pentosan polysulfate [PPS] | potently inhibited | stronger inhibition |  |  | 
